# PubChem BioAssay AID270 (DTP/NCI, 2004)
# Where “and” joins values, the source holds several entries; their conditions need not be identical. Equal values may be shown once. Results filed as inconclusive are left out.
# System: BDF1 mice, s.c. Lewis lung carcinoma, T/C %
# Test: NCI In Vivo Anticancer Drug Screen. Data for tumor model Lewis Lung Carcinoma (subcutaneous) in B6D2F1 (BDF1) mice
# How it was run: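 Transplanted tumors grown in mice; compound vs vehicle dosing; endpoint survival or tumor size; ratio T/C.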
# [1] = endpoint: median survival time, dose: 25.0 mg/kg/injection, schedule: Q01DX009 (ip), vehicle: saline with Tween-80, higher = longer survival
# [2] = endpoint: median survival time, dose: 50.0 mg/kg/injection, schedule: Q01DX009 (ip), vehicle: saline with Tween-80, higher = longer survival
# [3] = endpoint: median survival time, dose: 100.0 mg/kg/injection, schedule: Q01DX009 (ip), vehicle: saline with Tween-80, higher = longer survival
# [4] = endpoint: median survival time, dose: 200.0 mg/kg/injection, schedule: Q01DX009 (ip), vehicle: saline with Tween-80, higher = longer survival
smiles,measurement,setting,value
CCN(CC)c1nc(N(CC)CC)nc(N(CC)CC)n1,T/C,[1],95 % of control
same,T/C,[2],105 % of control
same,T/C,[3],95 % of control
same,T/C,[4],104 % of control
same,T/C,"endpoint: median survival time, dose: 400.0 mg/kg/injection, schedule: Q01DX009 (ip), vehicle: saline with Tween-80, higher = longer survival",89 % of control
COc1ccc(-c2ccc(OC)c(OC)c2OC)c(N)c1,T/C,"endpoint: mean tumor weight, dose: 375.0 mg/kg/injection, schedule: Q01DX011 (ip), vehicle: carboxymethylcellulose (CMC), higher = larger tumour",58 % of control
same,T/C,"endpoint: mean tumor weight, dose: 500.0 mg/kg/injection, schedule: Q01DX011 (ip), vehicle: carboxymethylcellulose (CMC), higher = larger tumour",89 % of control
same,T/C,"endpoint: mean tumor weight, dose: 625.0 mg/kg/injection, schedule: Q01DX011 (ip), vehicle: carboxymethylcellulose (CMC), higher = larger tumour",74 % of control
same,T/C,"endpoint: mean tumor weight, dose: 750.0 mg/kg/injection, schedule: Q01DX011 (ip), vehicle: carboxymethylcellulose (CMC), higher = larger tumour",56 % of control
same,T/C,[1],101 % of control
same,T/C,[2],107 % of control
same,T/C,[3],108 % of control
same,T/C,[4],106 % of control
S=c1nc[nH]c2c1ncn2C1CCCO1 (configuration not stated),T/C,"endpoint: mean tumor weight, dose: 12.5 mg/kg/injection, schedule: Q01DX011 (ip), vehicle: other, higher = larger tumour",36 % of control
same,T/C,"endpoint: mean tumor weight, dose: 25.0 mg/kg/injection, schedule: Q01DX011 (ip), vehicle: other, higher = larger tumour",86 % of control
same,T/C,"endpoint: mean tumor weight, dose: 50.0 mg/kg/injection, schedule: Q01DX011 (ip), vehicle: other, higher = larger tumour",91 % of control
same,T/C,"endpoint: mean tumor weight, dose: 100.0 mg/kg/injection, schedule: Q01DX011 (ip), vehicle: other, higher = larger tumour",67 % of control
O=S(=O)(O)c1cc(O)ccc1O,T/C,"endpoint: mean tumor weight, dose: 133.0 mg/kg/injection, schedule: Q01DX011 (ip), vehicle: saline, higher = larger tumour",66 % of control
same,T/C,"endpoint: mean tumor weight, dose: 300.0 mg/kg/injection, schedule: Q01DX011 (ip), vehicle: saline, higher = larger tumour",99 % of control and 119 % of control
same,T/C,"endpoint: mean tumor weight, dose: 600.0 mg/kg/injection, schedule: Q01DX011 (ip), vehicle: saline, higher = larger tumour",67 % of control
NC(=S)N/N=C/c1ncccc1O,T/C,"endpoint: mean tumor weight, dose: 6.25 mg/kg/injection, schedule: Q01DX011 (ip), vehicle: saline, higher = larger tumour",99 % of control
same,T/C,"endpoint: mean tumor weight, dose: 12.5 mg/kg/injection, schedule: Q01DX011 (ip), vehicle: saline, higher = larger tumour",86 % of control
same,T/C,"endpoint: mean tumor weight, dose: 25.0 mg/kg/injection, schedule: Q01DX011 (ip), vehicle: saline, higher = larger tumour",61 % of control
same,T/C,"endpoint: mean tumor weight, dose: 50.0 mg/kg/injection, schedule: Q01DX011 (ip), vehicle: saline, higher = larger tumour",31 % of control
same,T/C,"endpoint: mean tumor weight, dose: 100.0 mg/kg/injection, schedule: Q01DX011 (ip), vehicle: saline, higher = larger tumour",1 % of control
COC1=NCN=C2SC=C(N)N=C12,T/C,"endpoint: median survival time, dose: 12.5 mg/kg/injection, schedule: Q01DX009 (ip), vehicle: saline, higher = longer survival",107 % of control
same,T/C,"endpoint: median survival time, dose: 25.0 mg/kg/injection, schedule: Q01DX009 (ip), vehicle: saline, higher = longer survival",122 % of control
same,T/C,"endpoint: median survival time, dose: 50.0 mg/kg/injection, schedule: Q01DX009 (ip), vehicle: saline, higher = longer survival",110 % of control
Nc1nc(N)c2nc(CNc3ccc(C(=O)NC(CCC(=O)O)C(=O)O)cc3)cnc2n1 (configuration not stated),T/C,"endpoint: mean tumor weight, dose: 0.02 mg/kg/injection, schedule: Q01DX011 (ip), vehicle: other, higher = larger tumour",94 % of control
same,T/C,"endpoint: mean tumor weight, dose: 0.04 mg/kg/injection, schedule: Q01DX011 (ip), vehicle: other, higher = larger tumour",103 % of control
same,T/C,"endpoint: mean tumor weight, dose: 0.08 mg/kg/injection, schedule: Q01DX011 (ip), vehicle: other, higher = larger tumour",97 % of control
same,T/C,"endpoint: mean tumor weight, dose: 2.5 micrograms/kg/injection, schedule: Q01DX011 (ip), vehicle: saline, higher = larger tumour",76 % of control
same,T/C,"endpoint: mean tumor weight, dose: 5.0 micrograms/kg/injection, schedule: Q01DX011 (ip), vehicle: saline, higher = larger tumour",98 % of control
same,T/C,"endpoint: mean tumor weight, dose: 20.0 micrograms/kg/injection, schedule: Q01DX011 (ip), vehicle: saline, higher = larger tumour",100 % of control
CCCCS(=O)CC(CO)NC(=O)/C=C/c1c(C)[nH]c(=O)[nH]c1=O (configuration not stated),T/C,"endpoint: median survival time, dose: 0.63 mg/kg/injection, schedule: Q01DX009 (ip), vehicle: water, higher = longer survival",101 % of control
same,T/C,"endpoint: median survival time, dose: 2.5 mg/kg/injection, schedule: Q01DX009 (ip), vehicle: water, higher = longer survival",113 % of control
same,T/C,"endpoint: median survival time, dose: 5.0 mg/kg/injection, schedule: Q01DX009 (ip), vehicle: water, higher = longer survival",89 % of control
